These are literature values, as cited in patent publication US20050287587A1, “Production of glycosylated macrolides in E. coli” (The Board of Trustees of the Leland Stanford Junior …, priority 2002, published 2005).

The conditions of the data set: general background statement, no strain or method given.

On to `CC[C@H]1OC(=O)[C@H](C)[C@@H](O)[C@H](C)[C@@H](O)[C@@H](C)C[C@@H](C)C(=O)[C@H](C)[C@@H](O)[C@H]1C` [6-deoxyerythronolide B], for which the antibacterial activity result is reported as “no antibacterial activity”.
